Measured values published in PMC10938434, “Design, Synthesis, and Biological Effect Studies of Novel Benzofuran–Thiazolylhydrazone Derivatives as Monoamine Oxidase Inhibitors” (ACS Omega, 2024).
Where “and” joins values, the source holds several entries; their conditions need not be identical. Equal entries are not always repeated.

Columns and labels:
MAO-A enzyme = target: T1, MAO-A enzyme (Homo sapiens, UniProt P21397); test: MAO-A enzyme inhibition, fluorometric method; type: biochemical; conditions: for IC50: 10^–3–10^–9 M concentrations; for selectivity: MAO isoform preferentially inhibited; for SI* selectivity index: SI = IC50MAO-B/IC50 MAO-A; for inhibition at 1000 µM: read-out: MAO-A % inhibition 10^–3 M; for inhibition at 100 µM: read-out: MAO-A % inhibition 10^–4 M
T1 sequence (P21397 1-527): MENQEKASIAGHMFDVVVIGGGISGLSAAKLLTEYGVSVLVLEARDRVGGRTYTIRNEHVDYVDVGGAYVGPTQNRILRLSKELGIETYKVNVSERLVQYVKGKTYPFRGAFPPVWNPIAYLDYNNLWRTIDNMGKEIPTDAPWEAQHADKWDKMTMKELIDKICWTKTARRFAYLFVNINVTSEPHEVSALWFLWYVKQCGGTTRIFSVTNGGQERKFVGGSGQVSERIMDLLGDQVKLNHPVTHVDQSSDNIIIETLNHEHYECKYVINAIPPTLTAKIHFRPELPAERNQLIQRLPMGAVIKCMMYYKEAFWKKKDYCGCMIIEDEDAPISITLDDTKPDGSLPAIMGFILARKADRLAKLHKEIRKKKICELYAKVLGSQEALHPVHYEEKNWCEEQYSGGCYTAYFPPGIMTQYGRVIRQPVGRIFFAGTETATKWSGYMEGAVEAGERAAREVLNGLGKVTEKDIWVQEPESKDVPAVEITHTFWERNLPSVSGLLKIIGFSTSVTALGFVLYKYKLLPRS
Description: (§1) Inhibition profiles of the synthesized compounds on MAO enzymes were investigated by the fluorometric method.
(§2) In every step of the method, distilled water obtained from a Millipor, a Milli-Q Synthesis A10 purification device, was used. Care was taken in preparing all of the solutions used fresh and to consume them within 1 week after preparation. A BioTek-Precision Power robotic pipetting system was used in the processes of separating the solutions prepared in the enzyme inhibition study, applying the test compounds to 96-well plates, and adding the enzyme–substrate solutions.

MAO-B enzyme = target: T2, MAO-B enzyme (Homo sapiens, UniProt P27338); test: MAO-B enzyme inhibition, fluorometric method; type: biochemical; conditions: for inhibition at 1000 µM: 10^–3 M; for inhibition at 100 µM: read-out: MAO-B % inhibition 10^–4 M, 10^–4 M
T2 sequence (P27338 1-520): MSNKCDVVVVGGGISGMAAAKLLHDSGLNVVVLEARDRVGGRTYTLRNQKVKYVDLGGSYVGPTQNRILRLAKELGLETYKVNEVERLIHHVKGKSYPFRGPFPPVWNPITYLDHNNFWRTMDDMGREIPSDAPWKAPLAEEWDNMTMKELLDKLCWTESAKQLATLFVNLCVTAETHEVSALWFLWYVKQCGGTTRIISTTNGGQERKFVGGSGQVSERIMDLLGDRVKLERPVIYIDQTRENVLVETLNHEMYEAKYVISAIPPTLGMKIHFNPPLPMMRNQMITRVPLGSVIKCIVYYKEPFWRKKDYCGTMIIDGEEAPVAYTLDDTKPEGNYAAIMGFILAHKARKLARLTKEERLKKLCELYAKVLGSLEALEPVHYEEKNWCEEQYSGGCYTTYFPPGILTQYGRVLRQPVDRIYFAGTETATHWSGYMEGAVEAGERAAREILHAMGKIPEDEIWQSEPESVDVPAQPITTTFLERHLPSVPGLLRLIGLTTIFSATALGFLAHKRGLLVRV
Description: as §1
as §2, with “solutions. The creation, monitoring, and spectrophotometric measurements of the enzyme protocol were performed on a BioTek-Synergy H1 microplate reader.[41],[42]” for “solutions.”

[1] = In vitro BBB permeability assay (PAMPA); type: in vitro ADME
Cytotoxicity test (MTT) = type: cell-based, mouse; conditions: mouse, NIH3T3 mouse embryo fibroblast cells, 24 h
Protocol: (§3) Just as important as the effectiveness of a compound is its side effect profile. For this purpose, cytotoxic effect tests of compound 2l were carried out. NIH3T3 (healthy mouse fibroblast cells) was used as the healthy cell in the experimental procedure.
(§4) 3-(4,5-Dimethylthiazol-2-yl)-2,5-diphenyl tetrazolium bromide (MTT) stock solution (5 mg mL^–1) was prepared by dissolving in phosphate buffer (PBS). The viable cell count of NIH/3T3 (mouse healthy embryo fibroblast cells) cells grown in appropriate medium and culture medium was characterized, and each cell line was seeded in 96-well plates with 3000 cells in each well, and the cells were incubated for 24 h for their adhesion. […] At the end of the incubation, the medium in each well was removed and 100 μL of DMSO was added as a solvent and the absorbance values were read in an enzyme-linked immunosorbent assay (ELISA) device (Bio Tek Cytation3 multimode microplate reader) at a wavelength of 540 nm, with eight wells in each group. […] The obtained absorbance values give the metabolic activities of the cells, and these values are associated with the number of living cells. The results are determined as % inhibition values according to the formula given, and IC50 values are calculated from these values by using the Excel program.[52]−[54]

[2] = system: NIH3T3 (healthy mouse fibroblast cells); test: Cytotoxicity test (MTT); type: cell-based
Protocol: as §3, §4

Row | IC50 (MAO-A enzyme) | selectivity (MAO-A enzyme) | SI* selectivity index (MAO-A enzyme) | inhibition at 1000 µM (MAO-A enzyme) [%] | inhibition at 100 µM (MAO-A enzyme) [%] | IC50 (MAO-B enzyme) [nM] | inhibition at 1000 µM (MAO-B enzyme) [%] | inhibition at 100 µM (MAO-B enzyme) [%] | BBB permeability (in words) [1] | Structure (SMILES) | IC50 at 24 h (Cytotoxicity test (MTT)) [nM] | cytotoxic effect result [2]
1 | 80 ± 10 nM | MAO-A | >9.91 | 90.4 ± 1.66 | 83.7 ± 1.09 | 800 ± 30 | 85.2 ± 1.01 | > 50 | – | C(=NNc1nc(-c2ccccc2)cs1)c1cc2ccccc2o1 [2a, 2-(2-(Benzofuran-2-ylmethylene)hydrazinyl)-4-phenylthiazole] | – | –
2 | 210 ± 10 nM | MAO-A | >458.72 | 87 ± 1.92 | 78.2 ± 1.44 | > 100000 | 64.5 ± 1.12 | 47.1 ± 0.85 | – | Cc1ccc(-c2csc(NN=Cc3cc4ccccc4o3)n2)cc1 [2b, 2-(2-(Benzofuran-2-ylmethylene)hydrazinyl)-4-(p-tolyl)thiazole] | – | –
3 | 180 ± 10 nM | MAO-A | >568.18 | 85.2 ± 2.03 | 72.8 ± 1.36 | > 100000 | 55.8 ± 0.96 | 42.8 ± 0.89 | – | COc1ccc(-c2csc(NN=Cc3cc4ccccc4o3)n2)cc1 [2c, 2-(2-(Benzofuran-2-ylmethylene)hydrazinyl)-4-(4-methoxyphenyl)thiazole] | – | –
4 | 310 ± 10 nM | MAO-A | >326.79 | 80.8 ± 1.69 | 71 ± 1.18 | > 100000 | 69 ± 1.05 | 40.7 ± 0.98 | – | N#Cc1ccc(-c2csc(NN=Cc3cc4ccccc4o3)n2)cc1 [2d, 4-(2-(2-(Benzofuran-2-ylmethylene)hydrazinyl)thiazol-4-yl)benzonitrile] | – | –
5 | 260 ± 10 nM | MAO-A | >386.10 | 83.2 ± 1.65 | 69.3 ± 0.9 | > 100000 | 72.1 ± 1.4 | 48.3 ± 0.86 | – | O=[N+]([O-])c1ccc(-c2csc(NN=Cc3cc4ccccc4o3)n2)cc1 [2e, 2-(2-(Benzofuran-2-ylmethylene)hydrazinyl)-4-(4-nitrophenyl)thiazole] | – | –
6 | 340 ± 10 nM | MAO-A | >4.06 | 85.7 ± 1.48 | 73.6 ± 1.16 | 1370 ± 60 | 82.7 ± 1.66 | > 50 | – | Fc1ccc(-c2csc(NN=Cc3cc4ccccc4o3)n2)cc1 [2f, 2-(2-(Benzofuran-2-ylmethylene)hydrazinyl)-4-(4-fluorophenyl)thiazole] | – | –
7 | 90 ± 10 nM | MAO-A | >1075.27 | 79.5 ± 1.06 | 68.7 ± 0.94 | > 100000 | 68.4 ± 0.97 | 45.2 ± 0.86 | – | Clc1ccc(-c2csc(NN=Cc3cc4ccccc4o3)n2)cc1 [2g, 2-(2-(Benzofuran-2-ylmethylene)hydrazinyl)-4-(4-chlorophenyl)thiazole] | – | –
8 | 420 ± 20 nM | MAO-A | >2.53 | 86.8 ± 1.6 | 78.5 ± 1.09 | 1060 ± 50 | 70.2 ± 1.36 | > 50 | – | Brc1ccc(-c2csc(NN=Cc3cc4ccccc4o3)n2)cc1 [2h, 2-(2-(Benzofuran-2-ylmethylene)hydrazinyl)-4-(4-bromophenyl)thiazole] | – | –
9 | 430 ± 20 nM | MAO-A | >3.93 | 84.2 ± 1.35 | 71.3 ± 1.86 | 1690 ± 80 | 73.5 ± 1.49 | > 50 | – | Cc1ccc(-c2csc(NN=Cc3cc4ccccc4o3)n2)c(C)c1 [2i, 2-(2-(Benzofuran-2-ylmethylene)hydrazinyl)-4-(2,4-dimethylphenyl)thiazole] | – | –
10 | 140 ± 10 nM | MAO-A | >719.42 | 87.5 ± 1.8 | 68.4 ± 1.15 | > 100000 | 67.9 ± 1.3 | 41.5 ± 0.75 | – | COc1ccc(-c2csc(NN=Cc3cc4ccccc4o3)n2)c(OC)c1 [2j, 2-(2-(Benzofuran-2-ylmethylene)hydrazinyl)-4-(2,4-dimethoxyphenyl)thiazole] | – | –
11 | 130 ± 10 nM | MAO-A | >787.40 | 89.9 ± 1.76 | 73.7 ± 0.83 | > 100000 | 74.5 ± 1.4 | 40.7 ± 0.95 | – | Fc1ccc(-c2csc(NN=Cc3cc4ccccc4o3)n2)c(F)c1 [2k, 2-(2-(Benzofuran-2-ylmethylene)hydrazinyl)-4-(2,4-difluorophenyl)thiazole] | – | –
12 | 73 nM and 70 nM | MAO-A | >10.30 | 94 ± 1.65 | 91.4 ± 1.36 | 750 ± 30 | 86.6 ± 1.29 | – | high BBB permeability | Clc1ccc(-c2csc(NN=Cc3cc4ccccc4o3)n2)c(Cl)c1 [2l, 2-(2-(Benzofuran-2-ylmethylene)hydrazinyl)-4-(2,4-dichlorophenyl)thiazole] | > 100000 | nontoxic

Row | Structure (SMILES) | IC50 (MAO-A enzyme) | selectivity (MAO-A enzyme) | SI* selectivity index (MAO-A enzyme) | inhibition at 1000 µM (MAO-A enzyme) [%] | inhibition at 100 µM (MAO-A enzyme) [%] | IC50 (MAO-B enzyme) [nM] | inhibition at 1000 µM (MAO-B enzyme) [%] | inhibition at 100 µM (MAO-B enzyme) [%] | BBB permeability (in words) [1] | IC50 at 24 h (Cytotoxicity test (MTT)) [nM] | cytotoxic effect result [2]
13 | O=C(NCCN1CCOCC1)c1ccc(Cl)cc1 [Moclobemid, moclobemide, reference compound] | – | – | – | 94.1 ± 2.76 | 82.1 ± 2.69 | – | – | – | – | – | –
